For the assay, the system named is S. aureus ATCC25923. The experiment in a line: Inner membrane permeabilization, PI staining by flow cytometry. The class given is cell-based, Staphylococcus aureus. Particulars: 1 × MIC, 37 °C, untreated 0.04%. On the procedure:
The permeabilization of the inner membrane was performed according to a previous report by Li et al. with slight modifications. […] Bacterial cells were then washed twice with PBS, fixed with 50 μg/ml PI and analyzed using a BD FACS Calibur Flow Cytometer (Franklin Lakes, New Jersey, USA). Data were analyzed using CellQuest Pro software (BD, USA).

In the case of “FKAWRWAWRMKKLAAPS [Lfcin4, 17-residue LfcinB17-31 derivative, Trp/Ala-containing]”, the PI-positive cells came out at 44.20% (30 min) and 50.10% (120 min).

These data come from publication PMC5347165, “Killing of Staphylococcus aureus and Salmonella enteritidis and neutralization of lipopolysaccharide by 17-residue bovine lactoferricins: improved activity of Trp/Ala-containing molecules” (Scientific Reports, 2017).
